Data on eleven compounds can be found in ChEMBL document CHEMBL1201862, “PubChem BioAssay data set” (2004).

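Compound exposure: 48 hours, 5 concentrations, 96-well plates. At the GI50, growth is halved.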 The source made the active and inactive calls. No stated cut-off is given here; in the data, active = GI50 up to about 1.1 µM and inactive = higher.

Test systems include BT-549; SN12C; NCI-H522; UACC-62; A498; RPMI-8226; MDA-MB-435; CAKI-1; MCF7; HCT-116; MDA-N; KM12; SK-OV-3; OVCAR-8; OVCAR-5; SNB-19; SF-539; NCI-H23; M14.
Experiment in all cases: inhibition of tumour cell growth, NCI panel, 48 h

With `CC(C)(C)OC(=O)CN1CCNCCN(CC(=O)OC(C)(C)C)CCNCC1`, the GI50 in the assay on BT-549 is > 100 µM (inactive); with SN12C, > 100 µM (inactive); in the assay on NCI-H522, > 100 µM (inactive); in the assay on UACC-62, > 100 µM (inactive); in the assay with A498, > 100 µM (inactive); in the assay on RPMI-8226, 70 µM (inactive). For the same compound, the GI50 in the assay with MDA-MB-435 is 98.9 µM (inactive); in the assay on CAKI-1, > 100 µM (inactive); in the assay with MCF7, > 100 µM (inactive); in the assay on HCT-116, 26.2 µM (inactive); in the assay on MDA-N, 65.6 µM (inactive); with KM12, 98.9 µM (inactive). In addition, the GI50 in the assay with SK-OV-3, in the assay with OVCAR-8, in the assay with OVCAR-5, in the assay on SNB-19 and with SF-539 was > 100 µM (inactive) in each case.

Consider `COC1CC(C)(N)C(O)C(C)O1` (centres undefined), for which the GI50 with BT-549, in the assay on SN12C, with NCI-H522, in the assay with UACC-62, with A498 and in the assay on RPMI-8226 was > 100 µM (inactive) throughout. Also, the GI50 in the assay on MDA-MB-435, with CAKI-1, in the assay on MCF7, with HCT-116, in the assay on MDA-N and in the assay with KM12 was > 100 µM (inactive) throughout. Further, the GI50 in the assay on NCI-H23, in the assay with SK-OV-3, in the assay with OVCAR-8, with M14, in the assay with SNB-19 and in the assay on SF-539 was > 100 µM (inactive) each time.

For `Cc1ccc(C2=Nn3c(nc4sc(C)c(C)c4c3=O)SC2)cc1`, the GI50 with BT-549, in the assay with SN12C, with NCI-H522, with UACC-62, with A498 and in the assay with RPMI-8226 was > 100 µM (inactive) throughout. Further, the GI50 with MDA-MB-435, in the assay on CAKI-1, in the assay on MCF7, in the assay on HCT-116, in the assay with MDA-N and in the assay on KM12 was > 100 µM (inactive) each time. In addition, the GI50 with NCI-H23, in the assay with SK-OV-3, in the assay on OVCAR-8, in the assay with OVCAR-5 and with SF-539 was > 100 µM (inactive) throughout.

Consider `CCN(CC)c1ccc(/C=C/c2ccnc3ccccc23)cc1`, for which the GI50 in the assay on BT-549, with SN12C, in the assay on UACC-62, in the assay on A498, with RPMI-8226 and in the assay on MDA-MB-435 was > 100 µM (inactive) each time. For the same compound, the GI50 in the assay with CAKI-1, with MCF7, in the assay on HCT-116, with MDA-N, with KM12 and in the assay on NCI-H23 was > 100 µM (inactive) throughout. The GI50 with SK-OV-3, in the assay with OVCAR-5, with M14, with SNB-19 and with SF-539 was > 100 µM (inactive) throughout.

`CCC[N+](C)(C)CCCNC(=O)c1c(O)c2ccccc2[nH]c1=O`: the GI50 in the assay on BT-549 was 89.1 µM (inactive); in the assay with SN12C, > 100 µM (inactive); in the assay on NCI-H522, > 100 µM (inactive); with UACC-62 it was > 100 µM (inactive); in the assay on A498, > 100 µM (inactive); in the assay with RPMI-8226, > 100 µM (inactive). Also, the GI50 with MDA-MB-435, in the assay with CAKI-1, in the assay with MCF7, in the assay with HCT-116, with MDA-N and with KM12 was > 100 µM (inactive) throughout. For the same compound, the GI50 in the assay on NCI-H23, in the assay with SK-OV-3, with OVCAR-8, in the assay with OVCAR-5 and in the assay on SF-539 was > 100 µM (inactive) each time.

On to `CC(=O)OCc1nc(C#N)c(N)o1`, for which the GI50 in the assay with BT-549, in the assay on SN12C, in the assay on NCI-H522, in the assay on UACC-62, in the assay on A498 and in the assay on RPMI-8226 was > 100 µM (inactive) throughout. The GI50 in the assay on MDA-MB-435, with CAKI-1, in the assay with MCF7, with HCT-116, in the assay with MDA-N and in the assay on KM12 was > 100 µM (inactive) throughout. For the same compound, the GI50 with NCI-H23, in the assay on SK-OV-3, in the assay on OVCAR-5 and with SNB-19 was > 100 µM (inactive) in each case.

Consider `CCCCCC(=O)N[C@@H](c1ccccc1)C(O)C(=O)OC1C[C@@]2(O)C(OC(=O)c3ccccc3)C3[C@](C)(C(=O)[C@H](O)C(=C1C)C2(C)C)C(OC1OCC(O)C(O)C1O)C[C@H]1OC[C@@]31OC(C)=O` (some centres undefined), for which the GI50 with BT-549 is 2.62 µM (inactive); with SN12C, 3.54 µM (inactive); with NCI-H522, 0.245 µM (active); with UACC-62, 3.57 µM (inactive); in the assay with A498 it was 25.5 µM (inactive); in the assay on RPMI-8226 it was 0.486 µM (active). Besides, the GI50 in the assay on MDA-MB-435 was 0.202 µM (active); in the assay with MCF7, 1.02 µM (active); with HCT-116, 0.516 µM (active); in the assay with MDA-N, 0.078 µM (active); in the assay on KM12, 1.21 µM (inactive); in the assay on NCI-H23 it was 3.68 µM (inactive). Besides, the GI50 is 3.04 µM (inactive) in the assay with SK-OV-3; 6.35 µM (inactive) in the assay with OVCAR-8; > 20.7 µM (inactive) with OVCAR-5; 2.32 µM (inactive) in the assay with M14; 4.91 µM (inactive) with SNB-19; 0.494 µM (active) in the assay with SF-539.

Regarding `COc1ccc2c(c1)CC[C@@H]1[C@@H]2CC[C@]2(C)/C(=N/OCCN3CCCC3)CC[C@@H]12`, the GI50 was 8.07 µM (inactive) in the assay with BT-549; 6.52 µM (inactive) with SN12C; 3 µM (inactive) in the assay with NCI-H522; 1.82 µM (inactive) with UACC-62; 3.8 µM (inactive) in the assay on A498; 1.5 µM (inactive) with RPMI-8226. Also, the GI50 with MDA-MB-435 was 0.91 µM (active); with CAKI-1, 1.75 µM (inactive); with MCF7 it was 3.03 µM (inactive); with HCT-116, 1.78 µM (inactive); in the assay with MDA-N, 1.98 µM (inactive); in the assay with KM12, 2.42 µM (inactive). Moreover, the GI50 in the assay on NCI-H23 was 5.94 µM (inactive); with OVCAR-8, 3.81 µM (inactive); with OVCAR-5, 2.79 µM (inactive); in the assay with M14 it was 1.27 µM (inactive); with SNB-19, 11.1 µM (inactive); with SF-539, 1.9 µM (inactive).

As for `O=C1OC[C@@H]2[C@@H](O)CCCCCN12`, the GI50 in the assay with BT-549, with SN12C, in the assay with NCI-H522, with UACC-62, in the assay with A498 and with RPMI-8226 was > 100 µM (inactive) throughout. Further, the GI50 in the assay on MDA-MB-435, in the assay on CAKI-1, in the assay on MCF7, in the assay with HCT-116, in the assay on MDA-N and with KM12 was > 100 µM (inactive) in each case. Further, the GI50 with SK-OV-3, in the assay on OVCAR-8, in the assay on OVCAR-5, in the assay with SNB-19 and in the assay with SF-539 was > 100 µM (inactive) each time.

`CC(C)C1OC(=O)C=C1Sc1ccccc1` (centres undefined): the GI50 with BT-549, in the assay on SN12C, in the assay on NCI-H522, with UACC-62, in the assay on A498 and in the assay with RPMI-8226 was > 100 µM (inactive) throughout. Further, the GI50 in the assay with MDA-MB-435, with CAKI-1, with MCF7, in the assay with HCT-116, with MDA-N and in the assay with KM12 was > 100 µM (inactive) in each case. In addition, the GI50 in the assay on SK-OV-3, with OVCAR-8, in the assay on OVCAR-5, in the assay on M14, in the assay with SNB-19 and in the assay on SF-539 was > 100 µM (inactive) each time.

With `CCC/C=C/c1cc2c(cc1O)CC[C@@H]1[C@@H]2CC[C@]2(C)[C@@H](O)CC[C@@H]12`, the GI50 in the assay with BT-549 is 18.8 µM (inactive); in the assay on NCI-H522 it was 17.3 µM (inactive); with UACC-62, 14.5 µM (inactive); in the assay with A498, 17.2 µM (inactive); in the assay with RPMI-8226, 14 µM (inactive); with MDA-MB-435, 15.7 µM (inactive). In addition, the GI50 with CAKI-1 is 21.2 µM (inactive); in the assay on MCF7 it was 25.5 µM (inactive); with MDA-N, 15.1 µM (inactive); in the assay on KM12 it was 17.3 µM (inactive); with NCI-H23, 17.5 µM (inactive); with SK-OV-3, 26.8 µM (inactive). The GI50 is 22.9 µM (inactive) in the assay with OVCAR-8, 18.4 µM (inactive) in the assay on OVCAR-5, 20.3 µM (inactive) with M14 and 23.6 µM (inactive) with SNB-19.
